Measurements taken from US8653271B2 (priority 2006, dated 2014).
≈ marks a conversion by molar mass, not a printed value.

Tests used:
physchem = format: physicochemical; details: thermodynamic from solid
Procedure: The solubilities of CB-NTXOL-BUPOH, hydroxybupropion, and 6-β-naltrexol were determined by adding excess quantity of drug to mineral oil or pre-warmed HEPES-buffered Hanks' salt solution pH 7.4 at 32° C. (skin surface temperature), with equilibration while shaking in a water bath at 60 rpm. Weighing 4 mg of each of the drugs and placing them in 1 ml of each of the respective solvents was enough to ensure that there was excess drug in solution. Samples were drawn into a pre-warmed glass syringe, filtered through a syringe filter (Mineral oil: Millex FG-13, Millipore, Billerica, Mass., USA, and buffer: nylon filter, Gelman, East Hills, N.Y., USA), and measured with respect to volume and diluted with an appropriate volume of acetonitrile or buffer. The drug from the buffer samples was immediately extracted by solid phase extraction as described above. Drugs in mineral oil were diluted with a hundred-fold volume of acetonitrile and extraction recoveries were >95% for all the drugs. The sampling procedure was done in triplicate, discarding the first 40% of the initial filtrate. […]. For buffer solubilities, samples were taken after 30 min of sonication (to minimize the hydrolysis of the codrug). No significant difference was found between 30 min sonication solubility measurements and equilibrium solubility measurements taken after 48 h for 6-β-naltrexol.

[1] = Plasma hydrolysis of the carbonate codrug; format: in vitro ADME, guinea pig; details: guinea pig plasma in vitro at 37° C.
Procedure: Guinea pig plasma, which was stored at −20° C., was thawed to room temperature. Known and sub-saturated amounts of the codrug (50 nmol) were added to approximately 2.0 ml of the guinea pig plasma and vortexed. Two-hundred μl aliquots of the spiked plasma were distributed into sealed vials, and incubated at 37° C. Samples were withdrawn at predetermined time intervals; 0, 0.5, 1, 2, 4, 6, 9, 24, 30, and 48 h. 500 μl of ACN was added to each sample to precipitate plasma protein. Each sample was vortexed and centrifuged at 10,000×g for 15 min. The supernatant was separated and evaporated under nitrogen at room temperature, and the residue was reconstituted with ACN for high-pressure liquid chromatography (HPLC) analysis. A standard curve was prepared from drug-spiked plasma samples processed by the same method. The amounts of the codrug remaining or parent drugs released were plotted against time. These hydrolytic profiles were fit to previously developed mathematical models using nonlinear least-squares regression analysis ([…]®, Micromath Inc., Salt Lake City, Utah) as described by the equations below: […]

[2] = Table 4; values obtained from Kiptoo et al.; cited from earlier work
[3] = human skin, values obtained from Kiptoo et al., cited from earlier work
[4] = saturated solution in light mineral oil, human skin, 32° C., 48 h; codrug in 6-β-naltrexol equivalents
Procedure: Human skin harvested during abdominal reduction surgery was used for the diffusion studies. Skin sections were obtained by using a Padgett dermatome set to 250 μm; these sections were stored at −20° C. Stored skin samples were thawed to room temperature at the time of the experiment. A PermeGear flow-through (In-Line, Riegelsville, Pa., USA) diffusion cell system was used for the skin permeation studies. Skin surface temperature was maintained at 32° C. with a circulating water bath. Data was collected by using human skin from a single donor with three cells of 6-β-naltrexol and four cells CB-NTXOL-BUPOH. Because of normal human skin inter-subject permeation variability, the codrug was compared against 6-β-naltrexol permeation within each individual skin sample. These studies were repeated three times with skin from different human subject donors. The receiver solution was HEPES-buffered Hanks' balanced salt solution pH 7.4 set at a flow rate of 1.1 ml/h. […] A saturated solution of 6-β-naltrexol or CB-NTXOL-BUPOH in light mineral oil was applied to the skin in order to maintain a maximum and constant thermodynamic activity of the drug. Each cell was charged with 0.25 ml of the respective drug solution. […] All samples were immediately processed by solid phase extraction, evaporated under nitrogen, reconstituted, and analyzed for drug content by HPLC. The human tissue use was approved by the University of Kentucky Institutional Review Board.
Cumulative quantity of drug collected in the receiver compartment was plotted as a function of time. The flux value for a given experiment was obtained from the slope of the steady-state portion of the cumulative amount of drug permeated vs. time plot. Apparent permeability coefficient values were computed from Fick's First Law of diffusion:
Sink conditions were maintained in the receiver throughout the experiment, so ΔC was approximated by the drug concentration (solubility in this case) in the donor compartment.
The skin tissue was rinsed with filtered water and blotted with a paper towel. The tissue was tape-stripped twice to remove surface formulation. The area of skin with drug contact was cut out, chopped into tiny pieces, and placed in a pre-weighed vial. The vial was weighed to calculate the mass of the skin. Ten milliliters of acetonitrile was added to each vial, the vials vortexed, sonicated for 10 min, and placed in a shaker overnight. The following day, a 1 ml sample was obtained from the vials and placed in autosampler vials for analysis. […] Flux values and skin concentrations for each of the drugs were reported as mean±S.D and were statistically compared using a paired Student's t-test. Flux enhancement as well as drug disposition in the skin were considered significant at p<0.05.

[5] = Differential scanning calorimetry; format: physicochemical
[6] = format: physicochemical
Procedure: Equal amounts of the each of the codrug were distributed into labeled test-tubes (20 nmol in each tube). Care was taken to ensure that the entire codrug was dissolved and the solution remained clear. Hydrolysis of the carbonate codrug (˜20 nmol) was conducted in isotonic phosphate buffer pH 7.4 at 32° C. in a water-bath with continuous stirring. […] Samples were collected at predetermined time intervals and stored in the freezer at −20° C. until analyzed. All experiments were conducted in triplicate. An aliquot part (250 μL) of hydrolysis solutions was mixed with 750 μL of acetonitrile, vortexed for 30s, and analyzed by HPLC for the presence of codrug and the two corresponding parent drugs, as well as for the intermediate hydrolysis product, 23. […] A Brownlee C18 reversed-phase Spheri-5 μm column (220×4.6 mm) connected to a C18 reversed-phase guard column (15×3.2 mm) was utilized and detection of solutes was carried out at 215 nm. The mobile phase consisted of a mixture of acetonitrile: 0.1% trifluoroacetic acid adjusted to pH 3.0 with triethylamine (50:50, v/v). The mobile phase flow rate was 1.5 mL/min and 100 μL of hydrolysis sample was injected onto the column.

[7] = humans; cited from earlier work

CC1NC(C)(C)COC1(O)c1cccc(Cl)c1 (racemic) [Compound 4, (+/−)-2-(3-chlorophenyl)-3,5,5-trimethyl-2-morpholinol]
solubility at 30 min (physchem; aqueous buffer, pH 7.4, 32° C., 30 min sonication, read-out: Hanks' buffer solubility): 3.85 mM (≈ 985 µg/mL) | solubility at 48 h (physchem; oil or lipid, 32° C., 48 h equilibration (Table 3), read-out: Light mineral oil solubility): 4.04 mM (≈ 1030 µg/mL) | Guinea pig plasma half-life [1]: stable | Light mineral oil solubility [2]: 4.04 ± 0.04 mM | In vitro flux ([3]; codrug as NTXOL equivalent flux): 25.89 ± 6.01 nmol cm^−2 h^−1 | In vitro lag time [3]: 7.83 ± 1.73 h | Flux from mineral oil [4]: 25.89 nmol cm^−2 h^−1 | Mean activity of solid @ T = 25° C., a2 ([5]; calculated from melting point and heat of fusion): 0.34 | Heat of fusion, ΔHf ([5]; ±s.d., n = 3): 2.58 ± 0.012 kcal/mol

Cc1c(-c2cccc(Cl)c2)oc(=O)n1C(C)(C)COC(=O)Oc1ccc2c3c1OC1C(=O)CCC4(O)C(C2)N(CC2CC2)CCC314 (stereo not drawn) [Compound 25]
first-order rate constant k3 ([6]; generation of BUPOH from codrug 25, isotonic phosphate buffer pH 7.4): 0.0483 h⁻¹ | first-order rate constant k1 ([6]; hydrolysis at carbonate linker generating NTX (25) or NTXOL (26), isotonic phosphate buffer pH 7.4, 32° C.): 0.0179 h⁻¹

O=C1CC[C@@]2(O)[C@H]3Cc4ccc(O)c5c4[C@@]2(CCN3CC2CC2)[C@H]1O5 [Compound 1, Naltrexone]
oral bioavailability [7]: 5-40%
